Assays:
P. aeruginosa [1] = assay: Minimal inhibitory concentration (MIC), Example V; type: cell-based; details: Pseudomonas aeruginosa
Description: (§1) THE ANTIBACTERIAL SCREEN - EXAMPLE V
(§2) THE ANTIBACTERIAL SCREEN - EXAMPLES W - Z (Autotiter IV)
(§3) (a) Compounds. All compounds to be screened are weighed (approx. 10 mg) on the day preceding the test date. Each compound is solubilized on the day of assay in appropriate solvent and diluted automatically in the Autotiter IV with distilled water (buffer can be employed here also).
(§4) Bacteria: Staphylococcus aureas Smith (or 209), Escherichia coli AB 1932-1, 1100/B22 and Vogel, Streptococcus pyogenes C203 Salmonella typhimurium 14028, Bacillus subtilis 6051-1, Klebsiella pneumoniae 10031, Pseudomonas aeruginosa 9027, Bordetella bronchiseptica 4617 and Staphylococcus epidermidis 12228.
(§5) (c) Inocula. Prior to utilization in the Autotiter IV, all bacteria are cultured for 18-20 hr. (37° C) in tryptose phosphate broth (TP), except, S. pyogenes C203, which is cultured in Brain Heart Infusion broth plus 10% normal horse serum. Immediately prior to testing, each culture is adjusted to an optical density of 0.10 (650 nm), employing a Bausch & Lomb Spectronic 20, and diluted subsequently into double strength medium to approximately 2 × 10^5 viable organisms per ml.
(§6) 1. An automated injector system dispenses 0.05 ml of diluent (sterile H2 O or buffer) to all cups of the autotiter trays from rows 2 through 7.
(§7) 2. The loops (for sequential dilutions of the compounds are moistened by immersion into 70% ethyl alcohol. After removal of excess alcohol by blotting, the loops are moved to the first row of cups in the autotray containing 0.10 ml of the compound to be diluted and tested (usually, this initial concentration is 500 to 1000 mcg/ml, but can be varied upward or downward). The loops are lowered and sequentially transfer the diluted solutions of the compound through row 7.
(§8) Immediately after each dilution is made, each cup is automatically inoculated with 0.05 ml of the appropriate test organism. This inoculation derives from a second injector system containing the organism in double-strength medium. The total operation consists of the automatic dilution of a single compound in each of 8 rows of the Autotiter try.
(§9) After these operations, we reverse the tray and a second compound is diluted over the other one-half of the tray and inoculated, subsequently, with 8 organisms. Thus, for each Autotiter Tray, two compounds are screened against 8 different organisms at dilutions ranging from 1:2 to 1:128.
(§10) (e) Incubation. The inoculated Autotiter trays are incubated at 37° C for 18 - 20 hr. At the end of this period, each tray is examined for the presence or absence of growth (turbidity). The lowest concentration of the compound inhibiting growth is recorded as the minimal inhibitory concentration (MIC).

S. aureus [2] = assay: Minimal inhibitory concentration (MIC), Example V; type: cell-based; details: Staphylococcus aureus
Description: as §1, §2, §3, §4, §5, §6, §7, §8, §9, §10

S. pyogenes = assay: Minimal inhibitory concentration (MIC), Example V; type: cell-based; details: Streptococcus pyogenes
A. niger = assay: Minimal inhibitory concentration (MIC), Example V; type: cell-based; details: Aspergillus niger
From the text: (§11) MINIMAL INHIBITORY CONCENTRATION OF 2-AMINO-2-METHYL-1-PROPYL
(§12) ^a Minimal inhibitory concentration expressed in parts per million
(§13) sequence inhibited the test organism at the higher concentrations.
as §1

E. coli [3] = assay: Minimal inhibitory concentration (MIC), Example V; type: cell-based; details: Escherichia coli
From the text: as §11, §12, §13, §1

T. mentagrophytes = assay: Minimal inhibitory concentration (MIC), Example V; type: cell-based; details: Trichophyton mentagrophytes
From the text: as §11, §12, §13, §1

K. pneumoniae [4] = assay: Minimal inhibitory concentration (MIC), Example V; type: cell-based; details: Klebsiella pneumoniae
Description: as §11, §12, §13, §1
Klebsiella pneumoniae ATCC# 10031
as §2, §3, §4, §5, §6, §7, §8, §9, §10

C. albicans = assay: Minimal inhibitory concentration (MIC), Example V; type: cell-based; details: Candida albicans
From the text: MINIMAL INHIBITORY CONCENTRATION OF 2-AMINO-2-METHYL-1-PROPYL […]
as §1

S. aureus [5] = assay: Contact germicidal efficiency (sterilization time); type: cell-based, Staphylococcus aureus; details: Example Z, pH 4.6, in presence of horse serum, 5800 ppm (1057 PPMCl+)
Description: (§14) CONTACT GERMICIDAL EFFICIENCY OF
(§15) ^a Time intervals screened 0.5, 1, 2, 3, 4 and 5 minutes.
(§16) ^a Time intervals screened 0.5, 1, 2, 3, 4, 5, 6, 7, 8, 9 and 10
(§17) ^a Time intervals screened 0.5, 1, 2, 3, 4, and 5 minutes.
(§18) ^b Time intervals screened 0.5, 1, 2, 3, 4, 5, 6, 7, 8, 9 and 10
(§19) Immediately preceding the screen, the compound is weighed and diluted with a buffer or other solvent to give the final concentration desired. The buffer or solvent chosen depends on the conditions of the screen and could be one of the following: 0.1 M NaOAc, pH 4.6; 0.1 M NaH2 PO4, pH 7.0; 0.1 M Na2 B4 O7, pH 8.8; 35% methanol in one of the aforementioned buffers; 10% Triton × 100 in buffer, etc.
(§20) The positive chlorine concentration of the test solution is then determined iodometrically.
(§21) Media used for the Screen are Nutrient Broth, BBL# 11479 and Nutrient Agar, BBL# 11472 prepared according to label directions. The broth is dispensed in 75 ml amounts of flasks for overnight cultures and in 5 ml amounts to culture tubes for subculturing during the Screen. Agar plates are prepared as usual. […]
(§22) A 0.2 ml portion of the overnight culture is inoculated into 5 ml of 0.9% NaCl for use in controls. […] The earliest subculture time at which no growth is present in the subculture tube is considered the endpoint and is recorded as that time, e.g., 7 minutes. […]

E. coli [6] = assay: Contact germicidal efficiency (sterilization time); type: cell-based, Escherichia coli; details: Example Z, pH 4.6, in presence of horse serum, 5800 ppm (1057 PPMCl+)
Description: as §14, §15, §16, §17, §18, §19, §20, §21, §22

S. epidermidis = assay: Contact germicidal efficiency (sterilization time); type: cell-based, Staphylococcus epidermidis; details: Example Z, S. pidermidis, pH 4.6
Description: (§23) CONTACT GERMICIDAL EFFICIENCY OF N-CHLORAMINES AS A FUNCTION
as §15, §16, §17, §18, §19, §20
(§24) Media used for the Screen are Nutrient Broth, BBL# 11479 and Nutrient Agar, BBL# 11472 prepared according to label directions. The broth is dispensed in 75 ml amounts of flasks for overnight cultures and in 5 ml amounts to culture tubes for subculturing during the Screen. Agar plates are prepared as usual.
(§25) Overnight cultures are prepared by inoculating from stock cultures into the 75 ml flasks of nutrient broth and incubating for 15 hours at 37° C.
(§26) The iodometrically characterized test solution is dispensed in 5 ml amounts to seven small stoppered flasks. The organisms are screened one at a time as follows:
(§27) A 0.2 ml portion of the overnight culture is inoculated into 5 ml of 0.9% NaCl for use in controls. A 0.2 ml portion of the overnight culture is inoculated into a flask containing 5 ml of the test solution, an automatic timer is simultaneously triggered and the solution mixed. At time intervals of 30 seconds, 1, 2, 3, 4, 5, 6, 7, 8, 9, and 10 minutes a loopful of the inoculated solution is subcultured into 5 ml of sterile nutrient broth and mixed by a Vortex Genie Mixer, the high dilution serving to stop the action of the compound. At the end of the ten minute screen, the entire procedure is repeated for each of the remaining six organisms. All of the subculture tubes are incubated at 37° C and checked for signs of growth by turbidity at 24 hr., 48 hr., 3, 5, and 7 days. The earliest subculture time at which no growth is present in the subculture tube is considered the endpoint and is recorded as that time, e.g., 7 minutes.
(§28) The test solution is prepared and characterized as above but is made up at twice the concentration desired. The solution is diluted 1:1 with Rehydrated Tissue Culture Dessicated Horse Serum, Difco #5357-72 and dispensed in a 5 ml amount to a small flask. The mixture is incubated at Room Temperature for 30 minutes to allow denaturation of the compound by the serum and then screened as above.
(§29) The 5 ml mixture of serum and test solution are prepared in sequence to allow as close to 30 minutes as possible before the beginning of the screen of each organism.
as §4

K. pneumoniae [7] = assay: Contact germicidal efficiency (sterilization time); type: cell-based, Klebsiella pneumoniae; details: Example Z
Description: as §23, §15, §16, §17, §18, §19, §20, §24, §25, §26, §27, §28, §29, §4

P. aeruginosa [8] = assay: Contact germicidal efficiency (sterilization time); type: cell-based, Pseudomonas aeruginosa; details: Example Z
Description: as §23, §15, §16, §17, §18, §19, §20, §24, §25, §26, §27, §28, §29, §4

B. bronchiseptica = assay: Contact germicidal efficiency (sterilization time); type: cell-based, Bordetella bronchiseptica; details: Example Z
Description: as §23, §15, §16, §17, §18, §19, §20, §24, §25, §26, §27, §28, §29, §4

[9] = prior art; cited from earlier work
[10] = Solubility in 30% methanol: 0.1 M sodium dihydrogen phosphate, pH 7.0; type: physicochemical; details: 0.1 m nah2po4, pH 7, organic solvent or mixture, Concentration (footnote: Solubility in 30% methanol: 0.1 M sodium dihydrogen phosphate, pH 7.0)
[11] = pH 4.6, absence of horse serum, IV j 79 ppm (21 PPMCl+), IV k 5800 (1057), IV l 1112 (209)
[12] = pH 4.6, in presence of horse serum, 5800 ppm (1057 PPMCl+)

| Structure (SMILES) | MIC (P. aeruginosa [1]) | MIC (S. aureus [2]) | MIC (S. pyogenes) | MIC (A. niger) | MIC (E. coli [3]) | MIC (T. mentagrophytes) | MIC (K. pneumoniae [4]) | MIC (C. albicans) | Sterilization Time (S. aureus [5]) | Sterilization Time (E. coli [6]) | Sterilization Time (S. epidermidis; absence of horse serum, IV j 79 ppm (21 PPMCl+), IV k 5800 (1057), IV l 1112 (209)) | Sterilization Time (S. epidermidis; in presence of horse serum, 5800 ppm (1057 PPMCl+)) | Sterilization Time (K. pneumoniae [7]; [11]) | Sterilization Time (K. pneumoniae [7]; [12]) | Sterilization Time (P. aeruginosa [8]; [11]) | Sterilization Time (P. aeruginosa [8]; [12]) | Sterilization Time (B. bronchiseptica; [11]) | Sterilization Time (B. bronchiseptica; [12]) | Deactivation by denaturing agents (e.g., horse serum) [9] | solubility [10] |
| --- | --- | --- | --- | --- | --- | --- | --- | --- | --- | --- | --- | --- | --- | --- | --- | --- | --- | --- | --- | --- |
| C[n+]1cccc(C(=O)OCC(C)(C)N(Cl)Cl)c1 [IV k, 2-N,N-Dichloroamino-2-methyl-1-propyl nicotinate methylsulfate] | > 250 µg/mL | > 250 µg/mL | > 250 µg/mL | 125 µg/mL | > 250 µg/mL | 125 µg/mL | > 250 µg/mL | > 250 µg/mL | 6 min | 0.5 min | 4 min | 4 min | 2 min | 2 min | 2 min | 2 min | 1 min | 2 min | – | – |
| NCl [NH2 Cl, chloramine] | – | – | – | – | – | – | – | – | – | – | – | – | – | – | – | – | – | – | readily deactivated | – |
| CCCCCCCC(=O)OCC(C)(C)N.Cl [III e, 2-Amino-2-methyl-1-propyl octanoate hydrochloride] | > 62.5 µg/mL | > 62.5 µg/mL | > 62.5 µg/mL | > 62.5 µg/mL | > 62.5 µg/mL | > 62.5 µg/mL | > 62.5 µg/mL | > 62.5 µg/mL | – | – | – | – | – | – | – | – | – | – | – | 1040 µg/mL |
| ClNCl [NHCl2] | – | – | – | – | – | – | – | – | – | – | – | – | – | – | – | – | – | – | readily deactivated | – |
